The target of assay [1] is T1, Ba/F3 FLT3 (ITD/D835YF691L) (Homo sapiens, UniProt P36888, F691L/D835Y, cells depend on it, form not given).
T1 sequence (P36888 1-993 F691L/D835Y): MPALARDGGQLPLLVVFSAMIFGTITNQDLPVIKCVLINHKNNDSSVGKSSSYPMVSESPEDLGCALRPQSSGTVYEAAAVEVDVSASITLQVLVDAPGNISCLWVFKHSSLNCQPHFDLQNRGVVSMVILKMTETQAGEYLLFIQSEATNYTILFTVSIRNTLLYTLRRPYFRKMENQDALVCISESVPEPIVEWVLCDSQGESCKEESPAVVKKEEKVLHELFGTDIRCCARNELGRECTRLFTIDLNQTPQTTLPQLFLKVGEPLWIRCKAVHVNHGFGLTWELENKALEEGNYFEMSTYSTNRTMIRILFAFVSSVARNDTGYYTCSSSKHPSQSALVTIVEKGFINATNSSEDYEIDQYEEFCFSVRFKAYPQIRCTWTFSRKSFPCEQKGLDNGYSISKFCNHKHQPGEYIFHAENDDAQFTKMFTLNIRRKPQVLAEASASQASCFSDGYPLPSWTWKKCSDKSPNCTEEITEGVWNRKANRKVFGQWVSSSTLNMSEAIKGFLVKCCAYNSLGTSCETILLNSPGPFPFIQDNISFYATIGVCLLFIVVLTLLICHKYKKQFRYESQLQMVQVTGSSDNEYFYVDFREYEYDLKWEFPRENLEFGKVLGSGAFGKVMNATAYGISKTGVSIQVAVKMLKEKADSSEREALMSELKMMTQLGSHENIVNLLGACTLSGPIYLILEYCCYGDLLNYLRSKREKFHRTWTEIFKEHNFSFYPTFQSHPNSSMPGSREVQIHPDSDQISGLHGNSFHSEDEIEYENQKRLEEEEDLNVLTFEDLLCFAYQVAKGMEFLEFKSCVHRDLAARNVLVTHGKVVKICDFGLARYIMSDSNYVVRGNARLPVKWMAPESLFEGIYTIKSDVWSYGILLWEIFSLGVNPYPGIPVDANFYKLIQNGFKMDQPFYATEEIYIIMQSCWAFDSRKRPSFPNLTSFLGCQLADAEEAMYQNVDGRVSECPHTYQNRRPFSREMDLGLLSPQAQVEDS
Nature of the assay: Ba/F3 cell growth inhibition (CellTiter-Glo, 72 hours). The following applies: read-out: Ba/F3 GI50s (μM) FLT3 (ITD/D835YF691L). In kind it is cell-based. In general terms: Cellular ATP, detected with luciferase, serves as a proxy for viable cell number.

For assay [2], the target named is T2, Ba/F3 FLT3 (ITD/D835Y) (Homo sapiens, UniProt P36888, D835Y, cells depend on it, form not given).
T2 sequence (P36888 1-993 D835Y): T1 sequence (P36888 1-993 F691L/D835Y) with L691F
The description is as above. The format is cell-based. The following applies: read-out: Ba/F3 GI50s (μM) FLT3 (ITD/D835Y).

Where a chain is given by its changes, count along the chain named.

Regarding `CN1CCCn2cc(cn2)Nc2ncc3ccc(n3n2)-c2ccc(cc2)OCC1` [Example 2], the GI50 in assay [1] and in assay [2] was below 1 µM throughout.

With `CC(=O)N1CCCn2cc(cn2)Nc2ncc3ccc(n3n2)-c2ccc(cc2)OCC1` [Example 3, 1-((2^1Z,4^4E)-4^1H-11-oxa-3,8-diaza-2(7,2)-pyrrolo[2,1-f1][1,2,4]triazina-4(4,1)-pyrazola-1(1,4)-benzenacycloundecaphane-8-yl)ethan-1-one], the GI50 in assay [1] and in assay [2] was below 1 µM throughout.

Turning to `COc1cccc(NC(=O)N2CCCn3cc(cn3)Nc3ncc4ccc(n4n3)-c3ccc(cc3)OCC2)c1` [Example 7, (2^1Z,4^4E)-N-(3-methoxyphenyl)-4^1H-11-oxa-3,8-diaza-2(7,2)-pyrrolo[2,1-f][1,2,4]triazina-4(4,1)-pyrazola-1(1,4)-benzenecycloundecaphane-8-carboxamide], the GI50 is 1 to 10 µM in assay [1] and below 1 µM in assay [2].

As for `CS(=O)(=O)N1CCCn2cc(cn2)Nc2ncc3ccc(n3n2)-c2ccc(cc2)OCC1` [Example 9, (2^1Z,4^4E)-8-(methylsulfonyl)-4^1H-11-oxa-3,8-diaza-2(7,2)-pyrrolo[2,1-f][1,2,4]triazina-4(4,1)-pyrazola-1(1,4)-benzenecycloundecaphane], the GI50 in assay [1] and in assay [2] was below 1 µM each time.

Take `O=C1CCCCCCn2cc(cn2)-c2ccc3cnc(nn23)Nc2ccc(cc2)OCCCN1` [Example 17, (1^4Z,2^1Z)-1′H-5-oxa-3,9-diaza-2(7,2)-pyrrolo[2,1-f][1,2,4]triazina-1(4,1)-pyrazola-4(1,4)-benzenacyclohexadecaphan-10-one]: the GI50 in assay [1] and in assay [2] was 1 to 10 µM throughout.

Consider `O=C1CCCCCCOc2ccc(cc2F)-c2ccc3cnc(nn23)Nc2ccc(cc2)OCCCN1` [Example 20, (Z)-13-fluoro-5,17-dioxa-3,9-diaza-2(7,2)-pyrrolo[2,1-f][1,2,4]triazina-1,4(1,4)-dibenzenacycloheptadecaphan-10-one], for which the GI50 is at least 10 µM in assay [1] and 1 to 10 µM in assay [2].

Regarding `O=C1CCCCCCOc2ccc(cc2)-c2ccc3cnc(nn23)Nc2ccc(cc2)N2CCN(CCCN1)CC2` [Example 23, (Z)-17-oxa-3,9-diaza-2(7,2)-pyrrolo[2,1-f][1,2,4]triazina-5(1,4)-piperazina-1,4(1,4)-dibenzenacycloheptadecaphan-10-one], the values for the GI50 in assay [1] and in assay [2] were 1 to 10 µM and below 1 µM, respectively.

Regarding `O=C1CCCCCCOc2ccc(cc2)-c2ccc3cnc(nn23)Nc2ccc(cc2)N2CCN1CC2` [Example 24, (Z)-13-oxa-3-aza-2(7,2)-pyrrolo[2,1-f][1,2,4]triazina-5(1,4)-piperazina-1,4(1,4)-dibenzenacyclotridecaphan-6-one], the GI50 is at least 10 µM in assay [1] and 1 to 10 µM in assay [2].

As to `O=C1CCCCOc2ccc(cc2)-c2ccc3cnc(nn23)Nc2cnn(c2)C2CCN1CC2` [Example 25, (2^1Z,4^4E)-4^1H-11-oxa-3-aza-2(7,2)-pyrrolo[2,1-f][1,2,4]triazina-5(4,1)-piperidina-4(4,1)-pyrazola-1(1,4)-benzenacycloundecaphan-6-one], the GI50 in assay [1] is 1 to 10 µM; in assay [2], below 1 µM.

For `O=C1CCCCOc2ccc(cc2)-c2ccc3cnc(nn23)Nc2cnn(c2)C2CCN(CCCN1)CC2` [Example 26, (2^1Z,4^4E)-4^1H-15-oxa-3,9-diaza-2(7,2)-pyrrolo[2,1-f1][1,2,4]triazina-5(4,1)-piperidina-4(4,1)-pyrazola-1(1,4)-benzenacyclopentadecaphan-10-one], the GI50 in assay [1] and in assay [2] was below 1 µM each time.

`O=C1CCCCCCOc2ccc(cc2)-c2ccc3cnc(nn23)Nc2cnn(c2)C2CCN(CCCN1)CC2` [Example 27, (2^1Z,4^4E)-4^1H-17-oxa-3,9-diaza-2(7,2)-pyrrolo[2,1-f1][1,2,4]triazina-5(4,1)-piperidina-4(4,1)-pyrazola-1(1,4)-benzenacycloheptadecaphan-10-one]: the GI50 in assay [1] and in assay [2] was below 1 µM in each case.

Consider `O=C1COCCOc2ccc(cc2)-c2ccc3cnc(nn23)Nc2ccc(cc2)OCCCN1` [Example 28, (Z)-5,12,15-trioxa-3,9-diaza-2(7,2)-pyrrolo[2,1-f][1,2,4]triazina-1,4(1,4)-dibenzenacyclopentadecaphan-10-one], for which the GI50 in assay [1] is 1 to 10 µM; in assay [2] it was below 1 µM.

Regarding `O=C1CCCCCCOc2ccc(cc2)-c2ccc3cnc(nn23)Nc2ccc(cc2)OCCCN1` [Example 29, (Z)-5,17-dioxa-3,9-diaza-2(7,2)-pyrrolo[2,1-f][1,2,4]triazina-1,4(1,4)-dibenzenacycloheptadecaphan-10-one], the GI50 in assay [1] and in assay [2] was 1 to 10 µM each time.

Turning to `c1cc2ccc1Nc1ncc3ccc(n3n1)-c1ccc(cc1)OCCNCCCO2` [Example 30, (Z)-5,12-dioxa-3,9-diaza-2(7,2)-pyrrolo[2,1-f][1,2,4]triazina-1,4(1,4)-dibenzenacyclododecaphane], the GI50 in assay [1] and in assay [2] was below 1 µM throughout.

With `COc1cc2ccc1Nc1ncc3ccc(n3n1)-c1ccc(cc1)OCCOCC(=O)NCCCO2` [Example 34, (Z)-42-methoxy-5,12,15-trioxa-3,9-diaza-2(7,2)-pyrrolo[2,1-f][1,2,4]triazina-1,4(1,4)-dibenzenacyclopentadecaphan-10-one], the GI50 in assay [1] and in assay [2] was 1 to 10 µM throughout.

Consider `O=C1COCCOc2ccc(cc2)-c2ccc3cnc(nn23)Nc2cnn(c2)CCCN1` [Example 35, (2^1Z,4^4E)-4^1H-11,14-dioxa-3,8-diaza-2(7,2)-pyrrolo[2,1-f1][1,2,4]triazina-4(4,1)-pyrazola-1(1,4)-benzenacyclotetradecaphan-9-one], for which the GI50 in assay [1] and in assay [2] was below 1 µM each time.

Consider `O=C1CCCCOc2ccc(cc2)-c2ccc3cnc(nn23)Nc2cnn(c2)CCCN1` [Example 36, (2^1Z,4^4E)-4^1H-14-oxa-3,8-diaza-2(7,2)-pyrrolo[2,1-f][1,2,4]triazina-4(4,1)-pyrazola-1(1,4)-benzenacyclotetradecaphan-9-one], for which the GI50 in assay [1] and in assay [2] was below 1 µM each time.

Consider `O=C1CCCCCCOc2ccc(cc2)-c2ccc3cnc(nn23)Nc2cnn(c2)CCCN1` [Example 37, (2^1Z,4^4E)-4^1H-16-oxa-3,8-diaza-2(7,2)-pyrrolo[2,1-f1][1,2,4]triazina-4(4,1)-pyrazola-1(1,4)-benzenacyclohexadecaphan-9-one], for which the GI50 was 1 to 10 µM in assay [1] and below 1 µM in assay [2].

In the case of `O=C1CCCCOc2ccc(cc2)-c2ccc3cnc(nn23)Nc2ccc(cc2)OCCCN1` [Example 38, (Z)-5,15-dioxa-3,9-diaza-2(7,2)-pyrrolo[2,1-f][1,2,4]triazina-1,4(1,4)-dibenzenacyclopentadecaphan-10-one], the figures for the GI50 in assay [1] and in assay [2] were 1 to 10 µM and below 1 µM, respectively.

The record behind these values is patent US20250136614A1, “2,7-SUBSTITUTED PYRROLO[2,1-F][1,2,4]TRIAZINE COMPOUND HAVING PROTEIN KINASE INHIBITORY ACTIVITY” (Magicbullettherapeutics Co., Ltd., priority 2021, published 2025).
